Reference: patent US5609872A, “Peptides comprising a protective epitope from blood stages of plasmodium falciparum” (priority 1990, dated 1997)
Ends that are not written are not given here.

Columns and labels:
[1] = system: mAb 33G2; assay: PEPSCAN ELISA of rod-bound peptides with mAb 33G2; type: binding, human; conditions: culture supernatant with mAb 33G2 (approx. 10 μg/ml) diluted 1:100; N-acetylated peptides on rods
Protocol: The detailed epitope specificity on the single amino acid level for the mAb 33G2 was performed using the multiple peptide synthesis technique (PEPSCAN) developed by Geysen et al. (J. Immunol. Methods 102, 259-274, 1987). Peptides were synthesized on polyethylene rods on which polymers of polyacrylic acid had been formed by […]. Polyethylene rods and Pmoc L-amino acids performed as active esthers (Cambridge Research Biochemicals, UK) were used for synthesis according to instructions of the manufacturer. The N-terminals of all peptides were acetylated. As a basis for the mAb 33G2 epitope analysis, the sequence of amino acid residues 1-19 [SEQ ID NO.: 15] (ESVTEEIAEEDKSVIEEAV) of Ag332 (Mattei, D., Berzins, K., Wahlgren, M., Udomsangpetch, R., Perlmann, P., Griesser, H. W., Scherf, A., M uller-Hill, B., Bonnefoy, S., Guillotte, M., Langsley, G., Pereira da Silva, L. and Mercereau-Puijalon, O. (1989) Cross-reactive antigenic determinants present on different Plasmodium falciparum blood-stage antigens. Parasite Immunol. 11, 15-30) was used, containing sequences of the peptides with the highest reactivity with the mAb (Udomsangpetch, R., Carlsson, J., W ahlin, B., Holmquist, G., Ozaki, L. S., Scherf, A., Mattei, D., Mercereau-Puijalon, O., Uni, S., Aikawa, M., Berzins, K. and Perlmann, P. (1989) Reactivity of the human monoclonal antibody 33G2 with repeated sequences of three distinct Plasmodium falciparum antigens. J. Immunol. 142, 3620-3626). All possible overlapping heptapeptides, hexpeptides, pentapeptides and tetrapeptides covering the mentioned sequence were synthesized and their reactivity with mAb 33G2 was analysed by ELISA as described by Geysen et al. (J. Immunol. Methods 102, 259-274, 1987). Culture supernatant containing mAb 33G2 (approx. 10 μg/ml), was diluted 1:100. Peptide containing rods were washed in phosphate-buffered saline with 0.05% Tween 20 between all steps in ELISA. Bound antibodies were detected with a rabbit antihuman IgM-alkaline phosphatase conjugate (Sigma, St. Louis, Mo.) using p-nitrophenyl phosphate, disodium salt (Sigma) as substrate.

[2] = system: binding of mAb 33G2 to Pf11/RESA; conditions: peptide mixed with a fixed concentration of the mAb; up to 200 μg/ml tested; cited from earlier work

Substance | reactivity with mAb 33G2 in ELISA (absorbance at 405 nm), in words [1] | peptide concentration giving complete inhibition of mAb 33G2 immunofluorescence [2] [µg/mL]
LVEEV: pentapeptide epitope analog of residue 3-7 of Ag332 | recognized | 
ile-thr-glu-glu-ile (ITEEI) | recognized | 
val-thr-glu-glu-ile-ala (VTEEIA) [hexapeptide, amino acids 3-8 of Ag332] | recognized | 
TEEIAEE [thr-glu-glu-ile-ala-glu-glu, heptapeptide, amino acids 4-10 of Ag332] | showed reactivity | 
IADEV: pentapeptide epitope analog of residue 3-7 of Ag332 | recognized | 
ESVTEEI [glu-ser-val-thr-glu-glu-ile, heptapeptide, amino acids 1-7 of Ag332] | showed reactivity | 
VVEEV: pentapeptide epitope analog of residue 3-7 of Ag332; printed as SEQ ID NO.:19 (LVEEV) | recognized | 
ser-val-thr-glu-glu-ile (SVTEEI) [hexapeptide, amino acids 2-7 of Ag332] | recognized | 
(EEVVEEVVP)2: synthetic peptide corresponding to repeated sequence in antigen Pf11.1 (also: dimer of the repeat (EEVVEEVVP)2) |  | 100
Y (SVTEEIAEEDK)2: peptide corresponding to a dimer of amino acids 2-12 in antigen Ag332 (YSVTEEIAEEDK; also: dimer of the peptide) |  | 0.2
ile-ala-asp-glu-ile (IADEI) | recognized | 
SVTEEIA [ser-val-thr-glu-glu-ile-ala, heptapeptide, amino acids 2-8 of Ag332] | showed reactivity | 
val-ala-glu-glu-ile (VAEEI) | recognized | 
VTEEIAE [val-thr-glu-glu-ile-ala-glu, heptapeptide, amino acids 3-9 of Ag332] | showed reactivity | 
thr-glu-glu-ile-ala-glu (TEEIAE) [hexapeptide, amino acids 4-9 of Ag332] | recognized | 
YLDEV: pentapeptide epitope analog of residue 3-7 of Ag332 | did not react | 
